One assay has as its system Leptosphaeria nodorum. Nature of the assay: Activity against wheat leafspot (LN). Format: in vivo. The following applies: direct therapeutic foliar spray, 600 ppm, 6-8 days. The procedure:
(d) Activity against wheat leafspot (Leptosphaeria nodorum; LN.) The test is a direct therapeutic foliar spray. Leaves of wheat plants (cv Norman), at the single leaf stage, are inoculated by spraying with an aqueous suspension containing 1.5×10^6 conidia/ml. The inoculated plants are kept for 24 hours in a high humidity compartment prior to treatment. The plants are sprayed with a solution of the test compound at a dosage of 600 ppm using an automated sprayline as described under (a). After drying, the plants are kept for 6-8 days at 22° C. and moderate humidity (70%). Assessment is based on the density of lesions per leaf compared with that on leaves of control plants. The extent of disease control in all the above tests is expressed as a rating compared with either an untreated control or a diluent-sprayed-control, according to the criteria: […]

A further assay has as its system Plasmopara viticola. Nature of the assay: Antisporulant activity against vine downy mildew (PVA). Format: in vivo. The following applies: vine leaves, antisporulant foliar spray, 600 ppm, 750 l/ha. The method, then:
(a) Antisporulant activity against vine downy mildew (Plasmopara viticola; PVA) The test is a direct antisporulant one using a foliar spray. The lower surfaces of leaves of whole vine plants (cv Cabernet Sauvignon), approximately 8 cm high, are inoculated by spraying with an aqueous suspension containing 5×10^4 zoosporangia/ml. The inoculated plants are kept for 24 hours at 21° C. in a high humidity compartment, then 24 hours at glasshouse ambient temperature and humidity. Infected leaves are sprayed on their lower surfaces with a solution of active material in 1:1 water/acetone containing 0.04% "TWEEN 20" (Trade Mark; a polyoxyethylene sorbitan ester surfactant). Plants are treated using an automated sprayline with an atomising nozzle. The concentration of the compound is 600 ppm, and the spray volume is 750 l/ha. After spraying, the plants are returned to normal glasshouse conditions for 96 hours and are then transferred to the high humidity compartment for 24 hours to induce sporulation. Assessment is based on the percentage of the leaf area covered by sporulation compared with that on control leaves. The extent of disease control in all the above tests is expressed as a rating compared with either an untreated control or a diluent-sprayed-control, according to the criteria: […]

A further assay deals with Pyricularia oryzae. Format: in vivo. The following applies: rice seedlings, direct therapeutic foliar spray, 600 ppm, 4-5 days.
The subject of assay [1] is Erysiphe graminis f.sp. hordei. Nature of the assay: Direct protectant activity against barley powdery mildew (EGP). The class given is in vivo. The following applies: direct protectant foliar spray, 8 days. The method, then:
(f) Direct protectant activity against barley powdery mildew (Erysiphe graminis f.sp. hordei; EGP) The test is a direct protectant foliar spray. Leaves of barley seedlings (cv Golden Promise) at the single leaf stage are sprayed with the test compound as described under (a). After drying, the plants are kept for 24 hours in a glasshouse at 18° C. and 40% R.H. Then the plants are inoculated by dusting with mildew conidia and kept at 18° C. and 40% R.H. for 8 days. Assessment is based on the percentage of leaf area covered by sporulation compared with that on leaves of control plants. The extent of disease control in all the above tests is expressed as a rating compared with either an untreated control or a diluent-sprayed-control, according to the criteria: […]

A further assay has as its system Venturia inaequalis. Nature of the assay: Activity against apple scab in-vitro (VII). The class given is cell-based. The following applies: 10 ppm, 10 days, 20° C., mycelial growth. The procedure: (j) Activity against apple scab in-vitro (Venturia inaequalis: VII) This test measures the in-vitro activity of compounds against V. inaequalis that causes apple scab. The test compound in acetone is added into 4 ml aliquots of half strength Potato Dextrose Broth dispensed in 25-compartment petri dishes to give final concentrations of 10 ppm. The fungal inoculum consists of mycelial fragments and spores of V. inaequalis grown on malt agar and added to the broth to provide 5×10^4 propagules/ml broth. Petri dishes are incubated at 20° C. for 10 days until the assessment of mycelial growth. The extent of disease control in all the above tests is expressed as a rating compared with either an untreated control or a diluent-sprayed-control, according to the criteria: […]

The test system of assay [2] is Pseudocercosporella herpotrichoides. Nature of the assay: Activity against wheat eyespot in-vitro (PHI). The class given is cell-based. The following applies: 10 ppm, 10 days, 20° C., mycelial growth. The method, then:
(h) Activity against wheat eyespot in-vitro (Pseudocercosporella herpotrichoides; pHI) This test measures the in vitro activity of compounds against the fungus causing wheat eyespot. The test compound is dissolved or suspended in acetone and is added into 4 ml aliquots of half strength Potato Dextrose Broth (PDB) dispended in 25-compartment petri dishes to give a final concentration of 10ppm. The fungal inoculum consists of mycelial fragments of P. herpotrichoides grown in half strength PDB in shaken flasks and added to the broth to provide 5×10^4 fragments/ml broth. Petri dishes are incubated at 20° C. for 10 days until the assessment of mycelial growth. The extent of disease control in all the above tests is expressed as a rating compared with either an untreated control or a diluent-sprayed-control, according to the criteria: […]

The subject of a further assay is Alternaria solani. Nature of the assay: Activity against tomato early blight (AS). The class given is in vivo. The following applies: Table VI; tomato seedlings, contact prophylactic foliar spray, 4 days. The procedure: b) Activity against tomato early blight (Alternaria solani; AS) This test measures the contact prophylactic activity of test compounds applied as a foliar spray. Tomato seedlings (cv Outdoor Girl) are grown to the stage at which the second true leaf is expanded. The plants are treated using an automated sprayline as described under (a). Test compounds are applied as solutions or suspensions in a mixture of acetone and water (50:50 v/v) containing 0.04% surfactant ("TWEEN 20"--Trade Mark). After drying the plants are kept for 24 hours in a glasshouse at 20° C. and 40% R.H., followed by inoculation of the leaf upper surfaces with a suspension of A. solani conidia containing 10^4 spores/ml. For 4 days after inoculation plants are kept moist in a humidity compartment at 21° C. Disease is assessed 4 days after inoculation, based on the percentage of leaf surface area covered by lesions when compared with control plants. The extent of disease control in all the above tests is expressed as a rating compared with either an untreated control or a diluent-sprayed-control, according to the criteria: […]

The next assay deals with Botrytis cinerea. The experiment in a line: Direct protectant activity against broad bean grey mould (BCB). Format: in vivo. The following applies: direct protectant foliar spray, 600 ppm, 4 days. The method, then:
(c) Direct protectant activity against broad bean grey mould (Botrytis cinerea; BCB) The test is a direct protectant foliar spray. The upper surfaces of leaves of broad bean plants with two leaf pairs (cv The Sutton) are sprayed with the test compound at a dosage of 600 ppm using an automated sprayline as described under (a). 24 hours after spraying the leaves are inoculated with an aqueous suspension containing 10^6 conidia/ml. For 4 days after inoculation plants are kept in a high humidity compartment at 22° C. Disease is assessed 4 days after inoculation, based on the percentage of leaf surface area covered by lesions. The extent of disease control in all the above tests is expressed as a rating compared with either an untreated control or a diluent-sprayed-control, according to the criteria: […]

The test system of assay [3] is Erysiphe graminis f.sp. hordei. Nature of the assay: Activity against barley powdery mildew, direct therapeutic (EGT). The class given is in vivo. The following applies: direct therapeutic foliar spray, 600 ppm, up to 7 days. The procedure:
(e) Activity against barley powdery mildew (Erysiphe graminis f.sp. hordei; EGT) The test is a direct therapeutic foliar spray. Leaves of barley seedlings, (cv. Golden Promise) at the single leaf stage are inoculated by dusting with mildew conidia one day prior to treatment with the test compound. The inoculated plants are kept overnight at glasshouse ambient temperature (18° C.) and humidity (40%) prior to treatment. The plants are sprayed with the test compound at a dosage of 600 ppm using an automated sprayline as described under (a). After drying, plants are returned to a compartment at 18° C. and 40% humidity for up to 7 days. Assessment is based on the percentage of leaf area covered by sporulation compared with that on leaves of control plants. The extent of disease control in all the above tests is expressed as a rating compared with either an untreated control or a diluent-sprayed-control, according to the criteria: […]

Another assay has as its system Rhizoctonia solani. The experiment in a line: Activity against Rhizoctonia in-vitro (RSI). The class given is cell-based. The following applies: 10 ppm, 10 days, 20° C., mycelial growth. The method, then: (i) Activity against Rhizoctonia in-vitro (Rhizoctonia solani: RSI) This test measures the in-vitro activity of compounds against R. solani that causes stem and root rots. The test compound in acetone is added into 4 ml aliquots of half strength Potato Dextrose Broth dispensed in 25-compartment petri dishes to give final concentrations of 10 ppm. The fungal inoculum consists of mycelial fragments of R. solani growth in half strength PDB in shaken culture flasks and added to the broth to provide 5×10^4 fragments/ml broth. Petri dishes are incubated at 20° C. for 10 days until the assessment of mycelial growth. The extent of disease control in all the above tests is expressed as a rating compared with either an untreated control or a diluent-sprayed-control, according to the criteria: […]

Another assay has as its system Phytophthora infestans. The class given is in vivo. The following applies: tomato, direct protectant foliar spray.

Here are results for 4 compounds from patent publication US5591741A, “Fungicidal spiroheterocyclic derivatives” (American Cyanamid Company, priority 1993, dated 1997).

Take `CCCCCCCCNC1COC2(CCC(C(C)(C)C)CC2)C1` (centres unmarked) [Compound 7]: the “disease control rating LN” value in the assay on Leptosphaeria nodorum is 0 (less than 50% disease control). Also, in the assay on Plasmopara viticola, the “disease control rating PVA” value is on record as 0 (less than 50% disease control). Further, the “disease control rating PO” value in the assay on Pyricularia oryzae is listed as 0 (less than 50% disease control). In assay [1], the “disease control rating EGP” value is 2 (greater than 80% disease control). In addition, the “disease control rating VII” value with Venturia inaequalis is 2 (greater than 80% disease control). Further, the “disease control rating PHI” value in assay [2] is on record as 2 (greater than 80% disease control). Also, the “disease control rating AS” value in the assay on Alternaria solani is on record as 0 (less than 50% disease control). Further, in the assay on Botrytis cinerea, the “disease control rating BCB” value is recorded as 1 (about 50-80% disease control). The “disease control rating EGT” value in assay [3] is recorded as 2 (greater than 80% disease control). Further, the “disease control rating RSI” value in the assay with Rhizoctonia solani was 2 (greater than 80% disease control). Also, in the assay on Phytophthora infestans, the “disease control rating PIP” value is on record as 0 (less than 50% disease control).
Take `CCCCCNC1COC2(CCC(C(C)(C)C)CC2)C1` (centres unmarked) [Compound 8]: the “disease control rating LN” value in the assay on Leptosphaeria nodorum was 0 (less than 50% disease control). Further, the “disease control rating PVA” value in the assay on Plasmopara viticola is 0 (less than 50% disease control). For the same compound, the “disease control rating PO” value with Pyricularia oryzae is listed as 0 (less than 50% disease control). Also, in assay [1], the “disease control rating EGP” value is 2 (greater than 80% disease control). The “disease control rating VII” value in the assay with Venturia inaequalis is 1 (about 50-80% disease control). Moreover, the “disease control rating PHI” value in [2] was 1 (about 50-80% disease control). In addition, the “disease control rating AS” value in the assay on Alternaria solani is listed as 0 (less than 50% disease control). Further, the “disease control rating BCB” value with Botrytis cinerea was 1 (about 50-80% disease control). In assay [3], the “disease control rating EGT” value was 2 (greater than 80% disease control). The “disease control rating RSI” value in the assay with Rhizoctonia solani is recorded as 0 (less than 50% disease control). In the assay with Phytophthora infestans, the “disease control rating PIP” value is listed as 0 (less than 50% disease control).
On to `CC(C)(C)C1CCC2(CC1)CC(N1CCCC1)CO2` (centres unmarked) [Compound 9], for which the “disease control rating LN” value in the assay on Leptosphaeria nodorum is listed as 1 (about 50-80% disease control). Besides, the “disease control rating PVA” value in the assay on Plasmopara viticola is reported as 0 (less than 50% disease control). The “disease control rating PO” value in the assay on Pyricularia oryzae is given as 0 (less than 50% disease control). For the same compound, in [1], the “disease control rating EGP” value is reported as 2 (greater than 80% disease control). In addition, in the assay on Venturia inaequalis, the “disease control rating VII” value is 1 (about 50-80% disease control). The “disease control rating PHI” value in assay [2] is recorded as 1 (about 50-80% disease control). The “disease control rating AS” value in the assay on Alternaria solani is 0 (less than 50% disease control). In the assay on Botrytis cinerea, the “disease control rating BCB” value is reported as 0 (less than 50% disease control). Besides, in [3], the “disease control rating EGT” value is given as 2 (greater than 80% disease control). Besides, the “disease control rating RSI” value in the assay on Rhizoctonia solani was 0 (less than 50% disease control). For the same compound, the “disease control rating PIP” value in the assay with Phytophthora infestans is 0 (less than 50% disease control).
On to `CC(C)(C)C1CCC2(CC1)CC(N1CCCCC1)CO2` (centres unmarked) [Compound 10], for which the “disease control rating LN” value in the assay with Leptosphaeria nodorum is reported as 1 (about 50-80% disease control). Besides, in the assay with Plasmopara viticola, the “disease control rating PVA” value is recorded as 0 (less than 50% disease control). Moreover, the “disease control rating PO” value with Pyricularia oryzae is reported as 0 (less than 50% disease control). Further, in assay [1], the “disease control rating EGP” value is 2 (greater than 80% disease control). For the same compound, in the assay on Venturia inaequalis, the “disease control rating VII” value is listed as 1 (about 50-80% disease control). For the same compound, in assay [2], the “disease control rating PHI” value was 1 (about 50-80% disease control). In addition, in the assay with Alternaria solani, the “disease control rating AS” value is recorded as 0 (less than 50% disease control). The “disease control rating BCB” value in the assay with Botrytis cinerea was 2 (greater than 80% disease control). Moreover, in assay [3], the “disease control rating EGT” value is on record as 2 (greater than 80% disease control). Further, the “disease control rating RSI” value with Rhizoctonia solani is recorded as 0 (less than 50% disease control). Moreover, in the assay with Phytophthora infestans, the “disease control rating PIP” value was 0 (less than 50% disease control).
